# According to PubChem BioAssay AID623998 (Broad Institute, 2012):
# Values joined by “and” are separate entries in the source; they are usually repeats but may differ in a detail not shown here. Equal entries are not always repeated. Records with an inconclusive call do not appear. Active and inactive are the calls of the source.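 How the source made its calls: active means compound whose fitted half-maximal dose is at most twice its top tested dose in every repeat; inconclusive means mixed calls across repeats, weak flat response, or unreliable curve fit; inactive means all repeats flat, too weak, or wrong direction.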
# Biological target: Glycogen synthase kinase-3 beta (Homo sapiens) (UniProt P49841)
# Assay: GSK3beta kinase inhibitors, SAR follow-up, biochemical, ADP-Glo luminescence, dry powder samples (AID 623998)
# Conditions: GSK3beta ADP-Glo luminescence kinase assay, 60 min
# Sequence of Glycogen synthase kinase-3 beta (Homo sapiens) (P49841 whole entry, looked up): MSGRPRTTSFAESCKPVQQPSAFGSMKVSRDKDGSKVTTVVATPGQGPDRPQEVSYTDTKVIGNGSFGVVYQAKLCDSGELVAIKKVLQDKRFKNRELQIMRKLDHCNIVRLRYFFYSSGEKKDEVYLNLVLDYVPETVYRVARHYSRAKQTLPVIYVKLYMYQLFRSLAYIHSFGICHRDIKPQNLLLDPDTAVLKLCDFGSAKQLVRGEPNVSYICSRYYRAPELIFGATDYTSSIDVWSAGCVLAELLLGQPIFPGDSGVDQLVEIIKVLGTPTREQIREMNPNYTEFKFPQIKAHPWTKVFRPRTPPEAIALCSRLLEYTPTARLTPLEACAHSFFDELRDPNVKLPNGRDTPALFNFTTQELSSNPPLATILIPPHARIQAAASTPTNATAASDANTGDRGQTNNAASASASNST
row,SMILES,AC50
1,CC1(C)CC(=O)C2=C(C1)Nc1n[nH]c(C(F)(F)F)c1C2c1ccccc1F (configuration not stated),0.184 µM
2,CC1(C)CC(=O)C2=C(C1)Nc1n[nH]c(C(F)(F)F)c1C2c1cc(F)ccc1F (configuration not stated),0.451 µM
3,COc1ccccc1C1C2=C(CC(C)(C)CC2=O)Nc2n[nH]c(C(C)(C)C)c21 (configuration not stated),0.834 µM
4,COc1ccccc1C1C2=C(CCC(C)(C)C2=O)Nc2n[nH]c(C)c21 (configuration not stated),0.515 µM
5,Cc1[nH]nc2c1C(C1CC1)C1=C(CC(C)(C)CC1=O)N2 (configuration not stated),3.05 µM
6,Cc1[nH]nc2c1C(c1ccc3c(c1)OCO3)C1=C(CC(C)(C)CC1=O)N2 (configuration not stated),4.61 µM
7,Cc1[nH]nc2c1C(c1cccs1)C1C(=O)CC(C)(C)CC1=N2 (configuration not stated),0.627 µM
8,COc1ccccc1C1C2=C(CCCC2=O)Nc2n[nH]c(C)c21 (configuration not stated),3.42 µM
9,COc1ccccc1[C@H]1C2=C(CC(C)(C)CC2=O)Nc2n[nH]c(C(F)(F)F)c21,1.59 µM
10,CC1(C)CC(=O)C2=C(C1)Nc1n[nH]c(C(F)(F)F)c1C2c1c(F)cccc1F (configuration not stated),0.0875 µM
11,Cc1[nH]nc2nc3c(c(-c4cccs4)c12)C(=O)CC(C)(C)C3,28.1 µM
12,Cc1[nH]nc2c1C(c1ccc(C(F)(F)F)cc1)C1=C(CC(C)(C)CC1=O)N2 (configuration not stated),9.29 µM
13,CC1(C)CC(=O)C2=C(C1)Nc1n[nH]c(C(F)(F)F)c1C2c1ccccc1 (configuration not stated),0.0357 µM
14,COc1ccccc1C1C2=C(CC(C)(C)CC2=O)Nc2n[nH]c(-c3ccccc3)c21 (configuration not stated),1.55 µM
15,CC1(C)CC(=O)C2=C(C1)Nc1n[nH]c(C(F)(F)F)c1C2c1cc(F)ccc1C(F)(F)F (configuration not stated),0.0513 µM
16,COc1cccc(-c2nn(-c3ccccc3)cc2/C=N/O)c1,1.76 µM
17,O/N=C/c1cn(-c2ccccc2)nc1-c1ccc2c(c1)OCCO2,0.577 µM
18,COc1ccccc1C1C(C(C)=O)=C(C)Nc2n[nH]c(C)c21 (configuration not stated),3 µM
19,CC(C)c1ccc(-c2nn(-c3ccccc3)cc2/C=N/O)cc1,0.737 µM
20,CC1(C)CC(=O)C2=C(C1)Nc1n[nH]c(C(F)(F)F)c1C2c1cc(F)ccc1OC(F)(F)F (configuration not stated),0.403 µM
21,CC1(C)CC(=O)/C(=C\c2ccccc2C(F)(F)F)C(=Nc2cc(C(F)(F)F)[nH]n2)C1,3.11 µM

row,SMILES,AC50
1,O/N=C/c1cn(-c2ccccc2)nc1-c1ccc(F)cc1,0.44 µM
2,CC(C)COc1ccc(-c2nn(-c3ccccc3)cc2/C=N/O)cc1,3.08 µM
3,O/N=C/c1cn(-c2ccccc2)nc1-c1ccccc1,2.93 µM
4,COc1ccccc1C1C2=C(CC(C)(C)CC2=O)Nc2[nH]ncc21 (configuration not stated),0.122 µM
5,Cc1[nH]nc2c1C(C)(c1ccccc1)C1=C(CC(C)(C)CC1=O)N2 (configuration not stated),0.308 µM
6,Cc1[nH]nc2c1C(C)C1=C(CC(C)(C)CC1=O)N2 (configuration not stated),0.534 µM
7,Cc1ccc(-c2nn(-c3ccccc3)cc2/C=N/O)cc1,0.313 µM
8,COc1ccccc1/C=C1\C(=O)CC(C)(C)CC1=Nc1cc(C(F)(F)F)[nH]n1,7.5 µM
9,Cc1[nH]nc2c1C(c1ccn[nH]1)C1=C(CC(C)(C)CC1=O)N2 (configuration not stated),1.88 µM
10,COc1ccc(C2C3=C(CC(C)(C)CC3=O)Nc3n[nH]c(C)c32)cc1 (configuration not stated),14.7 µM
11,COc1ccccc1C1C2=C(CC3(CCCCC3)CC2=O)Nc2n[nH]c(C)c21 (configuration not stated),0.278 µM
12,COc1ccccc1C1C2=C(CC(C)(C)CC2=O)Nc2n[nH]c(C(C)C)c21 (configuration not stated),0.415 µM
13,CC1(C)CC(=O)C2=C(C1)Nc1n[nH]c(C(F)(F)F)c1C2c1ccc(F)cc1C(F)(F)F (configuration not stated),0.173 µM
14,COc1ccccc1C1C2=C(CC(C)(C)CC2=O)Nc2n[nH]c(C(F)(F)F)c21 (configuration not stated),0.0132 µM and 0.128 µM
15,O/N=C/c1cn(-c2ccccc2)nc1-c1ccc(Cl)cc1,0.0452 µM
16,COc1ccccc1[C@@H]1C2=C(CC(C)(C)CC2=O)Nc2n[nH]c(C(F)(F)F)c21,0.0238 µM
17,O=S(=O)(Nc1ccccn1)c1ccc(N=Cc2c(O)[nH]c3ccc4ncsc4c23)cc1,0.807 µM
18,CC1(C)CC(=O)/C(=C\c2cccc(F)c2C(F)(F)F)C(=Nc2cc(C(F)(F)F)[nH]n2)C1,2.63 µM
19,Cc1[nH]nc2c1C(c1cccc(C(F)(F)F)c1)C1=C(CC(C)(C)CC1=O)N2 (configuration not stated),0.199 µM
20,Cc1[nH]nc2c1C(c1ccsc1)C1=C(CC(C)(C)CC1=O)N2 (configuration not stated),1.37 µM
21,COc1ccc(-c2nn(-c3ccccc3)cc2/C=N/O)cc1OC,0.617 µM

# Next, values leading:
row,AC50,SMILES
1,0.0833 µM,CCc1[nH]nc2c1C(c1ccccc1OC)C1=C(CC(C)(C)CC1=O)N2 (configuration not stated)
2,1.02 µM,Cc1[nH]nc2c1C(c1ccccn1)C1=C(CC(C)(C)CC1=O)N2 (configuration not stated)
3,4.99 µM,Cc1[nH]nc2c1C(c1ccc(Br)cn1)C1=C(CC(C)(C)CC1=O)N2 (configuration not stated)
4,0.18 µM,Cc1[nH]nc2c1C(c1ccccc1Br)C1=C(CC(C)(C)CC1=O)N2 (configuration not stated)
5,0.54 µM,Cc1[nH]nc2c1C(c1cccc(F)c1)C1=C(CC(C)(C)CC1=O)N2 (configuration not stated)
6,0.0523 µM,Cc1[nH]nc2c1C(c1cccc(C#N)c1)C1=C(CC(C)(C)CC1=O)N2 (configuration not stated)
7,0.408 µM,Cc1[nH]nc2c1C(c1cccnc1)C1=C(CC(C)(C)CC1=O)N2 (configuration not stated)
8,2.29 µM,Cc1[nH]nc2c1C(c1ccc(F)cc1Cl)C1=C(CC(C)(C)CC1=O)N2 (configuration not stated)
9,0.614 µM,Cc1cccc(C2C3=C(CC(C)(C)CC3=O)Nc3n[nH]c(C)c32)c1 (configuration not stated)
10,0.0425 µM,Cc1[nH]nc2c1C(c1ccccc1C(F)(F)F)C1=C(CC(C)(C)CC1=O)N2 (configuration not stated)
11,0.455 µM,Cc1ccccc1C1C2=C(CC(C)(C)CC2=O)Nc2n[nH]c(C)c21 (configuration not stated)
12,0.919 µM,Cc1[nH]nc2c1C(c1cccc(Cl)c1)C1=C(CC(C)(C)CC1=O)N2 (configuration not stated)
13,2.16 µM,Cc1ccc(C2C3=C(CC(C)(C)CC3=O)Nc3n[nH]c(C)c32)cc1 (configuration not stated)
14,4.44 µM,Cc1[nH]nc2c1C(c1ccc(Cl)cc1)C1=C(CC(C)(C)CC1=O)N2 (configuration not stated)
15,0.0324 µM,CSc1ccccc1C1C2=C(CC(C)(C)CC2=O)Nc2n[nH]c(C)c21 (configuration not stated)
16,0.05 µM,Cc1[nH]nc2c1C(c1cccc3nonc13)C1=C(CC(C)(C)CC1=O)N2 (configuration not stated)
17,1.16 µM,COc1cccc(C2C3=C(CC(C)(C)CC3=O)Nc3n[nH]c(C)c32)c1 (configuration not stated)
18,0.124 µM,COc1ccccc1C1C2=C(CC(C)(C)CC2=O)Nc2n[nH]c(C)c21 (configuration not stated)
19,10.4 µM,Cc1[nH]nc2c1C(c1ccc(C#N)cc1)C1=C(CC(C)(C)CC1=O)N2 (configuration not stated)
20,5.57 µM,Cc1[nH]nc2c1[C@H](c1ccccc1C(F)(F)F)C1=C(CC(C)(C)CC1=O)N2
21,0.037 µM,Cc1[nH]nc2c1[C@@H](c1ccccc1C(F)(F)F)C1=C(CC(C)(C)CC1=O)N2
22,11.6 µM,Cc1[nH]nc2c1[C@H](c1cccs1)C1=C(CC(C)(C)CC1=O)N2
23,1.14 µM,Cc1[nH]nc2c1C(c1ccc(Cl)s1)C1=C(CC(C)(C)CC1=O)N2 (configuration not stated)
24,1.91 µM,Cc1[nH]nc2c1[C@@H](c1cccs1)C1=C(CC(C)(C)CC1=O)N2
25,2.96 µM,Cc1[nH]nc2c1C(c1ccc(F)cc1)C1=C(CC(C)(C)CC1=O)N2 (configuration not stated)
26,0.134 µM,Cc1[nH]nc2c1C(c1ccccc1C#N)C1=C(CC(C)(C)CC1=O)N2 (configuration not stated)
27,0.3 µM,Cc1[nH]nc2c1C(c1ccccc1Cl)C1=C(CC(C)(C)CC1=O)N2 (configuration not stated)

# Same assay, conditions: GSK3beta ADP-Glo luminescence kinase assay, 60 min; at 46 µM (top of the series)
row,"activity, negative = inhibition",SMILES
1,inactive,COc1ccc(-c2nn(-c3ccccc3)cc2C(=O)O)cc1
2,inactive,COc1ccccc1C1C2=C(CC(C)(C)CC2=O)Nc2ccccc21 (configuration not stated)
3,inactive,CN(C)Cc1cn(-c2ccccc2)nc1-c1ccccc1
